Our source for the EC50 and IC50 values is US10030016B2 (Sunesis Pharmaceuticals, Inc., priority 2009, dated 2018).

Where a name gives a salt, the structure may show the parent alone. Read-outs that look alike come from different tables or passages of the source.

A word on the EC50: it is the concentration that produces a half-maximal response. The term IC50 denotes the point on the concentration scale where inhibition reaches its midpoint. High values mean weaker potency, low ones greater potency.

Assay [1] deals with phospho-akt (Thr308) in PC-3 cells. Description: Inhibition of phospho-akt (Thr308) in PC-3 cells, MSD phospho-akt 308 ELISA kit. The class given is cell-based. To be noted: Homo sapiens, 2 hours, no serum, read-out: EC50. The essentials: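 Read-out is MSD electrochemiluminescence of Akt phosphorylated at Thr308 in lysates of PC-3 cells treated 2 h with compound in serum-free medium. Wortmannin at 5 μM defined the low control and DMSO the high control.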

A further assay concerns the target PDK1 (Homo sapiens (Human), UniProt O15530). Nature of the assay: PDK1 kinase assay (coupled PDK1/AKT/FAM-crosstide assay, IMAP fluorescence polarization). In kind it is biochemical. The essentials:
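PDK1 activity is measured indirectly through activation of a PIFtide-fused AKT2 construct that phosphorylates FAM-crosstide (100 nM). The reaction uses 0.75 nM PDK1, 40 μM ATP, 30 min, 25° C, with IMAP polarization detection.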
(In general: Polarisation of emitted light reports the rotation of a fluorescent probe.)

Where [2] appears, read: inhibition of P308 Akt in PC-3 cells, MSD.
[3] abbreviates: inhibition of phospo-PDK1 in vitro.
The mark [4] stands for this setting: inhibition of P308 Akt in PC-3 cells using MSD.
Setting [5] is: PC-3, 2 h, inhibition of P308 Akt in PC-3 cells, MSD.

Sequence of PDK1 (O15530 51-359): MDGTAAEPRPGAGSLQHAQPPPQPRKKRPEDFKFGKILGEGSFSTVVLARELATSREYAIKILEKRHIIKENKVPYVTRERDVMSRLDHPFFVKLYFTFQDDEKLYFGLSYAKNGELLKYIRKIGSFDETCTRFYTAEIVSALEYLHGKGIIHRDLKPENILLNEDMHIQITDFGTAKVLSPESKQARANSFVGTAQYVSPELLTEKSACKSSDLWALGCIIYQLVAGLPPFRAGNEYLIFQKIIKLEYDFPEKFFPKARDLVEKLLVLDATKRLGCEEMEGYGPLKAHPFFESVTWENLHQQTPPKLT

As to `CCOC(=O)c1cnc(NCc2ccc(-c3ccc4ncnc(N)c4c3)s2)c(C(=O)NCc2ccc(F)c(F)c2)c1` [Example 7.23.2, Ethyl 6-({[5-(4-aminoquinazolin-6-yl)thiophen-2-yl]methyl}amino)-5-[(3,4-difluorobenzyl)carbamoyl]pyridine-3-carboxylate], the EC50 in assay [1] (setting [2]) is below 1 µM. This molecule yielded an IC50 on PDK1 (setting [3]) of 0.1 to 1 µM.

As for `Nc1ccc(-c2ccc(CNc3nccc4ncn(Cc5ccc(F)c(F)c5)c(=O)c34)cc2)cn1` [Example 374, 5-(4-(6-aminopyridin-3-yl)benzylamino)-3-(3,4-difluorobenzyl)pyrido[4,3-d] pyrimidin-4(3H)-one], in assay [1] (setting [4]), the EC50 was 1 to 10 µM. The IC50 against PDK1 (inhibition of PDK1 in vitro) is below 0.1 µM.

On to `Nc1ncnc2ccc(-c3ccc(CNc4ncccc4C(=O)Nc4cccc(C(F)(F)F)c4)s3)cc12` [Example 3.53, 2-({[5-(4-aminoquinazolin-6-yl)thiophen-2-yl]methyl}amino)-N-[3-(trifluoromethyl)phenyl]pyridine-3-carboxamide (TFA salt)], for which, in assay [1] (setting [2]), the EC50 is above 10 µM. Besides, the IC50 on PDK1 (setting [3]) was above 5 µM.

With `Nc1ncnc2ccc(-c3ccc(CNc4ncc(Cl)cc4C(=O)NCc4ccc(F)c(F)c4)s3)cc12` [Example 8.12.3, 2-({[5-(4-aminoquinazolin-6-yl)thiophen-2-yl]methyl}amino)-5-chloro-N-(3,4-difluorobenzyl)pyridine-3-carboxamide], the EC50 in assay [1] (setting [2]) fell in the range of 1 to 10 µM. This molecule came in with an IC50 against PDK1 (setting [3]) of 1 to 5 µM.

For `C[C@H](NC(=O)c1cccnc1NCc1ccc(-c2ccc3ncnc(N)c3c2)s1)c1cncc(F)c1` [Example 3.59, (S)-2-(((5-(4-aminoquinazolin-6-yl)thiophen-2-yl)methyl)amino)-N-(1-(5-(fluoropyridin-3-yl)ethyl)nicotinamide (TFA salt)], in assay [1] (setting [2]), the EC50 lay in the range of 1 to 10 µM. On PDK1 (setting [3]), this molecule had a concentration for half-maximal inhibition (IC50) below 0.1 µM.

Regarding `C=C1c2ccnc(NCc3ccc(-c4ccc5ncnc(N)c5c4)s3)c2C(=O)N1Cc1ccc(F)c(F)c1` [Ex. 7.20], the EC50 in assay [1] (setting [2]) was in the range of 1 to 10 µM. Also, the IC50 on PDK1 (setting [3]) was in the range of 0.1 to 1 µM.

As for `C[C@H](NC(=O)c1nc(C#N)cnc1NCc1ccc(-c2cnc3[nH]ncc3c2)cc1)c1ccc(F)c(F)c1` [Example 390, 6-Cyano-3-[4-(1H-pyrazolo [3,4-b]pyridin-5-yl)-benzylamino]-pyrazine-2-carboxylic acid [(S)-1-(3,4-difluoro-phenyl)-ethyl]-amide], the EC50 in assay [1] (setting [4]) is below 1 µM. For the same molecule, the IC50 at PDK1 (inhibition of PDK1 in vitro) is below 0.1 µM.

In the case of `C[C@H](NC(=O)c1cc(C#N)cnc1NCc1ccc(-c2cnc3c(c2)OCCN3)cc1)c1ccc(F)cc1` [Example 137, (S)-5-cyano-2-(4-(3,4-dihydro-2H-pyrido [3,2-b][1,4]oxazin-7-yl)benzylamino)-N-(1-(4-fluorophenyl)ethyl)nicotinamide], in assay [1] (setting [4]), the EC50 was in the range of 1 to 10 µM. The molecule also displayed an IC50 at PDK1 (inhibition of PDK1 in vitro) below 0.1 µM.

With `CC(Nc1ncccc1C(=O)NCc1ccc(F)c(F)c1)c1ccc(-c2ccc3ncnc(N)c3c2)s1` (stereo not drawn) [Ex. 7.2], the EC50 in assay [1] (setting [5]) lay in the range of 1 to 10 µM. On PDK1 (setting [3]), the IC50 was 0.1 to 1 µM.

On to `C[C@H](NC(=O)c1cc(C#N)cnc1NCc1ccc(-c2cnc(N)c(C(=O)NCCO)n2)cc1)c1ccc(F)cc1` [Example 215, (S)-3-amino-6-(4-((5-cyano-3-(1-(4-fluorophenyl)ethylcarbamoyl)pyridin-2-ylamino)methyl)phenyl)-N-(2-hydroxyethyl) pyrazine-2-carboxamide], for which the EC50 in assay [1] (setting [4]) is below 1 µM. The same molecule showed a half-inhibitory concentration (IC50) on PDK1 (inhibition of PDK1 in vitro) below 0.1 µM.

Regarding `N#Cc1cnc(NCc2ccc(-c3cnc(N)cn3)cc2)c(C(=O)NCc2ccc(F)c(F)c2)c1` [Example 377, 2-(4-(5-aminopyrazin-2-yl)benzylamino)-5-cyano-N-(3,4-difluorobenzyl) nicotinamide], the concentration giving a half-maximal response (EC50) in assay [1] (setting [4]) lay within 1 to 10 µM. On PDK1 (inhibition of PDK1 in vitro), this molecule had an IC50 below 0.1 µM.

For the molecule `C[C@H](NC(=O)c1cccnc1NCc1ccc(-c2ccc3ncnc(N)c3c2)s1)c1cccc(F)c1` [Example 3.21, 2-({[5-(4-aminoquinazolin-6-yl)thiophen-2-yl]methyl}amino)-N-[(1S)-1-(3-fluorophenyl)ethyl]pyridine-3-carboxamide (TFA salt)], the EC50 in assay [1] (setting [2]) was in the range of 1 to 10 µM. The same molecule registered an IC50 on PDK1 (setting [3]) below 0.1 µM.

With `Nc1ncnc2c1c(-c1ccc(CNc3ncc(C(F)(F)F)cc3C(=O)NCc3ccc(F)c(F)c3)cc1)cn2CCCO` [Example 334, 2-(4-(4-amino-7-(3-hydroxypropyl)-7H-pyrrolo[2,3-d]pyrimidin-5-yl)-benzylamino)-N-(3,4-difluorobenzyl)-5-(trifluoromethyl)nicotinamide], the EC50 in assay [1] (setting [4]) was below 1 µM. Further, the IC50 at PDK1 (inhibition of PDK1 in vitro) is below 0.1 µM.

Regarding `Nc1n[nH]c2ncc(-c3ccc(CNc4ncc(C(F)(F)F)cc4C(=O)N4CC(F)(F)C4)cc3)cc12` [Example 293], the EC50 in assay [1] (PC-3, 2 h, inhibition of P308 Akt in PC-3 cells using MSD) is above 10 µM. Further, the IC50 on PDK1 (inhibition of PDK1 in vitro) was in the range of 1 to 5 µM.

`Nc1n[nH]c2ncc(-c3ccc(CNc4ncc(C(F)(F)F)cc4C(=O)NC4CCOC4)cc3)cc12` (stereo not drawn) [Example 305, 2-(4-(3-amino-1H-pyrazolo [3,4-b]pyridin-5-yl)benzylamino)-N-(tetrahydrofuran-3-yl)-5-(trifluoromethyl)nicotinamide]: in assay [1] (setting [4]), the EC50 lay in the range of 1 to 10 µM. Besides, the 50% inhibitory concentration (IC50) against PDK1 (inhibition of PDK1 in vitro) is 0.1 to 1 µM.

Turning to `Nc1ncnn2ccc(-c3ccc(CNc4ncc(C(F)(F)F)cc4C(=O)Nc4ccc(F)cc4)cc3)c12` [Example 177, 2-[4-(4-Amino-pyrrolo [2,1-f][1,2,4]triazin-5-yl)-benzylamino]-N-(4-fluoro-phenyl)-5-trifluoromethyl-nicotinamide], the EC50 in assay [1] (setting [4]) was 1 to 10 µM. This molecule registered an IC50 at PDK1 (inhibition of PDK1 in vitro) below 0.1 µM.

For the molecule `CCC(C)NS(=O)(=O)c1cnc(NCc2ccc(-c3ccc4ncnc(N)c4c3)s2)c(C(=O)NCc2ccc(F)c(F)c2)c1` (stereo not drawn) [Example 8.7.10, 2-({[5-(4-aminoquinazolin-6-yl)thiophen-2-yl]methyl}amino)-5-(butan-2-ylsulfamoyl)-N-(3,4-difluorobenzyl)pyridine-3-carboxamide], the 50% effective concentration (EC50) in assay [1] (setting [2]) was in the range of 1 to 10 µM. Moreover, on PDK1 (setting [3]), the IC50 fell in the range of 0.1 to 1 µM.

Turning to `C[C@H](NC(=O)c1cc(C#N)cnc1NCc1ccc(-c2cn(S(=O)(=O)c3ccccc3)nc2N)cc1)c1ccc(F)cc1` [Example 143, (S)-2-(4-(3-amino-1-(phenylsulfonyl)-1H-pyrazol-4-yl)benzylamino)-5-cyano-N-(1-(4-fluorophenyl)ethyl) nicotinamide], the EC50 in assay [1] (setting [4]) is above 10 µM. Besides, the IC50 against PDK1 (inhibition of PDK1 in vitro) was above 5 µM.

`N#Cc1cnc(NCc2ccc(-c3c[nH]c4ncnc(N)c34)cc2)c(C(=O)Nc2ccc(F)cc2)n1` [Example 320, 3-(4-(4-amino-7H-pyrrolo[2,3-d]pyrimidin-5-yl)benzylamino)-6-cyano-N-(4-fluorophenyl) pyrazine-2-carboxamide]: the EC50 in assay [1] (setting [4]) is below 1 µM. This molecule also displayed an IC50 against PDK1 (inhibition of PDK1 in vitro) below 0.1 µM.

With `C[C@H](NC(=O)c1cc(C#N)cnc1NCc1ccc(-c2ccc(C#N)nc2)cc1)c1ccc(F)cc1` [Example 111, (S)-5-cyano-2-(4-(6-cyanopyridin-3-yl)benzylamino)-N-(1-(4-fluorophenyl)ethyl)nicotinamide], the EC50 in assay [1] (setting [4]) is above 10 µM. This molecule returned an IC50 against PDK1 (inhibition of PDK1 in vitro) above 5 µM.

`C[C@H](NC(=O)c1nc(C#N)cnc1NCc1ccc(-c2cnc3[nH]nc(N)c3c2)cc1)c1ccc(F)cc1` [Example 32, (S)-3-(4-(3-amino-1H-pyrazolo[3,4-b]pyridin-5-yl)benzylamino)-6-cyano-N-(1-(4-fluorophenyl)ethyl) pyrazine-2-carboxamide]: the EC50 in assay [1] (setting [2]) is below 1 µM. The same molecule returned an IC50 on PDK1 (setting [3]) below 0.1 µM.

As to `C[C@H](NC(=O)c1nccnc1NCc1ccc(-c2cc3c(N)ncnc3cn2)s1)c1ccc(F)cc1` [Example 3.79, 3-({[5-(4-aminopyrido[3,4-d]pyrimidin-6-yl)thiophen-2-yl]methyl}amino)-N-[(1S)-1-(4-fluorophenyl)ethyl] pyrazine-2-carboxamide (TFA salt)], the EC50 in assay [1] (setting [5]) was below 1 µM. The IC50 against PDK1 (setting [3]) is 0.1 to 1 µM.

As to `CNC(=O)c1cc(S(=O)(=O)NCCN)cnc1NCc1ccc(-c2ccc3ncnc(N)c3c2)s1` [Example 344], the EC50 in assay [1] (setting [4]) was above 10 µM. On PDK1 (inhibition of PDK1 in vitro), this molecule came in with an IC50 above 5 µM.

Consider `Nc1ncnc2ccc(-c3ccc(CNc4ncccc4C(=O)Nc4cccc5cccnc45)s3)cc12` [Example 3.32, 2-({[5-(4-aminoquinazolin-6-yl)thiophen-2-yl]methyl}amino)-N-(quinolin-8-yl)pyridine-3-carboxamide (TFA salt)], for which the EC50 in assay [1] (setting [2]) was above 10 µM. The IC50 on PDK1 (setting [3]) is above 5 µM.

As to `C[C@@H](c1ccc(F)cc1)n1cnc2ccnc(NCc3ccc(-c4cc5c(N)ncnc5cn4)s3)c2c1=O` [Example 7.12, 5-({[5-(4-aminopyrido [3,4-d]pyrimidin-6-yl)thiophen-2-yl]methyl}amino)-3-[(1S)-1-(4-fluorophenyl)ethyl] pyrido[4,3-d]pyrimidin-4(3H)-one], the EC50 in assay [1] (setting [2]) was above 10 µM. Besides, at PDK1 (setting [3]), the IC50 is above 5 µM.

`C[C@H](NC(=O)c1nc(C#N)cnc1NCc1ccc(-c2cnc3[nH]nc(N)c3c2)cc1)c1ccc(F)c(F)c1` [Example 25, (S)-3-(4-(3-amino-1H-pyrazolo[3,4-b]pyridin-5-yl)benzylamino)-6-cyano-N-(1-(3,4-difluorophenyl)ethyl)pyrazine-2-carboxamide]: the concentration giving a half-maximal response (EC50) in assay [1] (setting [2]) was below 1 µM. At PDK1 (setting [3]), this molecule returned an IC50 below 0.1 µM.

`Nc1n[nH]c2ncc(-c3ccc(CNc4ncc(C(F)(F)F)cc4C(=O)Nc4cccc(C(F)(F)F)c4)cc3)cc12` [Example 294]: in assay [1] (setting [4]), the EC50 fell in the range of 1 to 10 µM. Further, the IC50 on PDK1 (inhibition of PDK1 in vitro) is below 0.1 µM.
